{"source": "patent US7592326B2", "about": "“Method for stimulating the immune, inflammatory or neuroprotective response” (priority 2004, dated 2009)", "key": {"[1]": {"tested_on": "C. neoformans strain 52", "assay": "Murine model of C. neoformans infection (proposed procedure)"}, "[2]": {"tested_on": "immature DCs", "assay": "Surface phenotype of DCs exposed to c-di-GMP (flow cytometry)", "type": "cell-based, human", "protocol": "Peripheral blood mononuclear cells (PBMC) were isolated by Ficoll-Hypaque gradient separation of buffy coats obtained from healthy volunteer blood donors by the Transfusion Center of Università Degli Studi “La Sapienza” Rome. DCs were generated from monocytes purified from PBMC by positive selection using magnetic cell separation columns and CD14 Microbeads. Highly enriched monocytes (>95% CD14^+) were cultured at 6×10^5/ml in RPMI 1640 medium supplemented with 15% heat-inactivated fetal calf serum (FCS), L-glutamine and penicillin-streptomycin and 250 ng/ml granulocyte macrophage-colony stimulating factor (GM-CSF) and 500 U/ml interleukin (IL)-4 at 37° C. for 5 days. Differentiation to DC was assessed both by morphologic observation and the detection of specific surface markers by flow cytometry. These cells were CD14^−, CD1a^+, HLA-DR^intermediate, HLA-ABC^intermediate CD80^low, CD86^low consistent with an immature DC phenotype. Untreated immature DCs were used as controls. […] LPS-treated DCs became stimulated/activated and produced CD83^+, HLA-DR^high, HLA-ABC^high consistent with a mature DC phenotype. […] Experiments using trypan blue exclusion tests were always performed in order to exclude any aspecific toxicity of c-di-GMP. NaCl (0.9%) used to resuspend the compound was always included as control. Cell staining was performed using mouse monoclonal antibodies FITC- or PE-conjugate. The following mAbs were used: CD14 (IgG1, PE), CD1a (IgG1, FITC), HLA-DR (IgG2a, FITC), HLA-ABC (IgG1, FITC), CD80 (IgG1, FITC), CD86 (IgG1, FITC); CD83 (IgG2b, PE), CXCR4 (IgG2aPE), CCR5 (IgG2a, FITC), CD32 (IgG2b, FITC). CD40, CCR7 and mannose receptor (MR) staining was performed using mouse mAb followed by FITC-conjugated affinity purified, isotype-specific goat anti-mouse Abs. Samples were analyzed using a FACScan flow cytometer and CellQuest software (Becton Dickinson). To investigate whether c-di-GMP induced phenotypic differentiation of human DCs, immature and mature DCs were cultured with c-di-GMP for 24 h and then analyzed for surface molecule expression."}, "[3]": {"tested_on": "P. carinii", "type": "in vivo, Pneumocystis carinii", "conditions": "C57BL/6 mice pretreated 48- and 24 h prior to infection"}, "[4]": {"tested_on": "basophils", "assay": "SOCS expression in basophils (real-time PCR)", "type": "cell-based, human", "protocol": "Whether or not cyclic dinucleotides affected induction of SOCS (Suppresser Of Cytokine Synthesis) expression in basophils treated with CDN's was then tested. […] Cells were treated for 18 h, total RNA isolated, and RT-PCR performed for SOCS-1, SOCS-3, and the HPRT housekeeping gene. The fact that cGpGp also induces SOCS-1 may explain why some inhibition of IL-3-induced IL-13 secretion is observed with this cyclic dinucleotide analog. […] In the current IL-13 assay, the cyclic dinucleotide is added simultaneously with IL-3. The TBDMS-cGpGp likely induces SOCS-1 expression faster and thus accounts for greater inhibition of IL-13. […] While modest inhibitory activity with cGpGp was observed, evidence that cGpGp induces SOCS-1 and sometimes better than TBDMS-cGpGp at this particular time point was observed. These differences might be explained by kinetics and it may be that SOCS gene expression would be higher following TBDMS-cGpGp treatment when examined at an earlier time point."}, "[5]": {"tested_on": "monocytes and granulocytes", "assay": "Monocyte and granulocyte recruitment after intraperitoneal injection (FACS of peritoneal fluid)", "type": "in vivo, C57BL/6 mice", "protocol": "C57BL/6 mice were injected with a volume of 500 ul containing 200 nmol c-di-GMP. […] Fluid was incubated in PBS BSA azide +24G2 (anti Fc) for 15 min at 4° C., washed in PBS, washed in PBS then stained and analyzed by FACs analysis (PBS BSA azide, 30 min 4° C.). Cells were stained with directly coupled fluorescent mAbs combinations in […] FACS buffer and further collected on a FACScalibur cytofluorometer (Becton Dickinson, BD). The following mAbs were purchased: fluorescein (FITC)-coupled M1/70 (anti-CD11b, BD Pharmingen), phycoerythrin (PE)-coupled 1A8 (anti-LY-6G, BD Pharmingen), 7/4 (Caltag), allophycocyanin (APC)-coupled F4/80 (Caltag). Cells were gated according to size and scatter to eliminate dead cells and debris from analysis."}, "[6]": {"tested_on": "TLR1/2, TLR3, TLR4/MD2, TLR5, TLR2/6, TLR7, TLR8, and TLR9", "assay": "HEK cells stably transfected with TLRs, IL-8 transcripts by QPCR", "type": "cell-based, human", "conditions": "200 uM, 3 hours", "protocol": "To test this hypothesis, human embryonic kidney (HEK) cells, which are normally unresponsive to TLR ligand stimulation, were stably transfected with TLR1/2, TLR3, TLR4/MD2, TLR5, TLR2/6, TLR7, TLR8, and TLR9. HEK 293 cells were cultured in Dulbecco's modified Eagle's medium supplemented with 10% fetal bovine serum. Cells were plated in 24-well tissue culture plates (1×10^5 cells/well) and maintained in the above medium for 24 h. The following day, cells were either left untreated or incubated with the indicated amount of TLR ligand. After the 3 hour treatment period, cells were harvested for total RNA using the Qiagen RNeasy kit per the manufacturer's protocol. The total RNA was converted to cDNA and QPCR was performed to determine the number of copies of IL-8."}, "[7]": {"tested_on": "cytokine mRNA in whole lung", "assay": "Cytokine mRNA levels in whole lung homogenates (quantitative PCR)", "type": "in vivo, Balb/c mice"}}, "data": [{"smiles": "Nc1nc(=O)c2ncn([C@@H]3OC4COP(=O)(O)O[C@H]5[C@@H](O)[C@H](n6cnc7c(=O)nc(N)[nH]c76)O[C@@H]5COP(=O)(O)OC4C3O)c2[nH]1", "note": "(stereo partly shown) [c-di-GMP, Bis(3′→5′)-cyclic diguanylic acid]", "values": [{"measurement": "pathogen burden compared with controls", "setting": "[1]; C57BL/6 mice", "value": "significantly reduced"}, {"measurement": "pulmonary eosinophilia", "setting": "[1]; C57BL/6 mice", "value": "significantly reduced"}, {"measurement": "IFN production and total numbers of CD4^+/IFN-γ^+ cells", "setting": "[1]; lung, C57BL/6 mice", "value": "increased"}, {"measurement": "survival", "setting": "[1]; oral, intranasal, i.p., i.v., s.q., or i.m. administration", "value": "increase survival"}, {"measurement": "effect in dose-response titration on DCs", "setting": "[2]; 0.5 μM c-di-GMP", "value": "No effect"}, {"measurement": "effect in dose-response titration on DCs", "setting": "[2]; 200 μM c-di-GMP", "value": "inconsistent results"}, {"measurement": "LPS-induced maturation", "setting": "[2]; DCs with LPS, data not shown", "value": "did not interfere"}, {"measurement": "surface expression of CD1a, HLA-ABC, CCR5 and CD40", "setting": "[2]; data not shown", "value": "did not affect"}, {"measurement": "expression of chemokine receptor CXCR4", "setting": "[2]; immature DCs, 24 h, FIG. 1C", "value": "significantly increased"}, {"measurement": "expression of chemokine receptor CCR7", "setting": "[2]; immature DCs, 24 h, FIG. 1D", "value": "significantly increased"}, {"measurement": "expression of CD86 (B7-2) (percentage of positive cells)", "setting": "[2]; immature DCs, 24 h, FIG. 1F", "value": "up-regulated"}, {"measurement": "CD32 expression", "setting": "[2]; immature DCs, 24 h, FIG. 1H", "value": "not affected"}, {"measurement": "expression of CD83 (mean fluorescence)", "setting": "[2]; immature DCs, 24 h, dose-dependent, no effect at high concentrations, FIG. 1B", "value": "slightly up-regulated"}, {"measurement": "expression of CD80 (B7-1)", "setting": "[2]; immature DCs, 24 h, dose-dependent, FIG. 1E", "value": "slightly increased"}, {"measurement": "expression of mannose receptor (MR) (mean fluorescence)", "setting": "[2]; immature DCs, 24 h, dose-dependent, FIG. 1G", "value": "reduced"}, {"measurement": "expression of HLA-DR (MFI, percentage of positive cells)", "setting": "[2]; immature DCs, c-di-GMP 5, 50, 100 μM, 24 h, FIG. 1A", "value": "up-regulated"}, {"measurement": "survival", "setting": "[3]", "value": "increased survival"}, {"measurement": "time of SOCS mRNA peak", "setting": "[4]", "value": "~18", "unit": "h"}, {"measurement": "SOCS-1 mRNA", "setting": "[4]; 18 h treatment", "value": "induced"}, {"measurement": "recruitment of F4/80^high LY-6G^med (monocytes) and F4/80^med LY-6G^high (granulocytes)", "setting": "[5]; 200 nmol i.p., peritoneal lavage at 18 hours", "value": "induced the recruitment"}, {"measurement": "macrophage and granulocyte recruitment in vivo relative to comparators", "setting": "[5]; under the conditions tested", "value": "to a greater extent than CpG ODN and LPS"}, {"measurement": "stimulation of LPS-sensitive MD2/TLR4-HEK cell line", "setting": "[6]", "value": "failed to stimulate"}, {"measurement": "activation of TLR expressing HEK cell lines (IL-8 transcripts)", "setting": "[6]; FIG. 14", "value": "none of the TLR expressing cell lines were activated"}, {"measurement": "IL-12 p40 levels vs control c-GMP", "setting": "[7]; 24 and 48 hrs post bacterial challenge", "value": "increased"}, {"measurement": "MIP-2 mRNA, increase over infected control (c-GMP)", "setting": "[7]; 24 hr post Klebsiella challenge, p<0.05, FIG. 17D", "value": 2, "unit": "fold"}, {"measurement": "IP-10 and IFN-gamma mRNA levels vs control c-GMP", "setting": "[7]; 24 hrs post K. pneumoniae, p<0.05", "value": "significantly higher"}, {"measurement": "type 1 cytokines IL-12 p40, IFN-gamma, and IP-10 in the lungs", "setting": "[7]; i.n. pre-treatment, time 0 (pre-infection)", "value": "induction"}, {"measurement": "induction of TNF-α in response to i.t. bacterial administration", "setting": "[7]; pretreatment, data not shown", "value": "did not significantly alter"}]}]}
